According to US7138361B2, “Herbicidal heterocycles” (E. I. du Pont de Nemours and Company, priority 2000, dated 2006):

What was measured:
Format in all cases: in vivo
[1] = system: morningglory (Ipomoea hederacea); test: Test C preemergence
Summary of the method: (§1)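 Visual injury scores of 0–100, with 100 meaning complete control, were given relative to controls after 12–14 days in the greenhouse. Treatments used a surfactant-containing non-phytotoxic solvent formulation, sprayed on seeded pots preemergence or on 1–4-leaf plants of 2–18 cm postemergence.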

kochia (Kochia scoparia) = test: Test C preemergence
Summary of the method: as §1

[2] = system: crabgrass (Digitaria sanguinalis); test: Test C preemergence
Summary of the method: as §1

[3] = system: goosegrass (Eleusine indica); test: Test C preemergence
Summary of the method: as §1

[4] = system: johnsongrass (Sorghum halepense); test: Test C preemergence
Summary of the method: as §1

[5] = system: velvetleaf (Abutilon theophrasti); test: Test C preemergence
Summary of the method: as §1

[6] = system: bermudagrass (Cynodon dactylon); test: Test C preemergence
Summary of the method: as §1

[7] = system: woolly cupgrass (Eriochloa villosa); test: Test C preemergence
Summary of the method: as §1

corn (Zea mays) = test: Test C preemergence
Summary of the method: as §1

Nightshade = test: Test C preemergence
[8] = system: giant foxtail (Setaria faberii); test: Test C preemergence
Summary of the method: as §1

Sunflower [9] = test: Test C preemergence
[10] = system: lambsquarters (Chenopodium album); test: Test C preemergence
Summary of the method: as §1

[11] = system: Surinam grass (Brachiaria decumbens); test: Test C preemergence
Summary of the method: as §1

[12] = system: yellow nutsedge (Cyperus esculentus); test: Test C preemergence
Summary of the method: as §1

[13] = system: pigweed (Amaranthus retroflexus); test: Test C preemergence
Summary of the method: as §1

[14] = system: cocklebur (Xanthium strumarium); test: Test C preemergence
Summary of the method: as §1

soybean (Glycine max) = test: Test C preemergence
Summary of the method: as §1

[15] = system: duck salad (Heteranthera limosa); test: Test C flooded paddy test
Summary of the method: (§2)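 2-leaf-stage plants, flooded paddy; treated; greenhouse 12–14 days; compared with controls by eye; rated 0–100 (0 none, 100 complete control).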

[16] = system: barnyardgrass (Echinochloa crus-galli); test: Test C flooded paddy test
Summary of the method: as §2

[17] = system: smallflower flatsedge (Cyperus difformis); test: Test C flooded paddy test; conditions: for Flatsedge plant response rating: Flooded Paddy, scale 0 to 100, 0 no effect, 100 complete control; for Plant response rating, Flatsedge: flooded paddy test, scale 0 to 100 (0 no effect, 100 complete control)
Summary of the method: as §2

Sunflower [18] = test: Test C preemergence; conditions: Rate 250 g/ha, visual evaluation after 12 to 14 days
[19] = Preemergence, Rate 500 g/ha, scale 0 to 100
[20] = Rate 62 g/ha, scale 0 to 100, 0 no effect, 100 complete control
[21] = preemergence, Rate 250 g/ha, visual evaluation after 12 to 14 days
[22] = preemergence, Rate 125 g/ha, scale 0 to 100, 0 no effect, 100 complete control
[23] = Flooded Paddy, Rate 500 g/ha, scale 0 to 100
[24] = Flooded Paddy, Rate 1000 g/ha, scale 0 to 100
[25] = Flooded Paddy, Rate 250 g/ha, scale 0 to 100, 0 no effect, 100 complete control
[26] = flooded paddy test, Rate 62 g/ha, scale 0 to 100 (0 no effect, 100 complete control)
[27] = flooded paddy test, Rate 125 g/ha, scale 0 to 100 (0 no effect, 100 complete control)

O=C1C(n2ccc(C3CC3)n2)CCN1c1cccc(C(F)(F)F)c1 (stereo not shown) [Compound 8]
Plant response rating, Morningglory [1, 19]: 30 | Plant response rating, Morningglory [1, 20]: 20 | Plant response rating (0 to 100), Morningglory [1, 21]: 30 | Plant response rating, Morningglory [1, 22]: 30 | Plant response rating, Kochia (kochia (Kochia scoparia); [19]): 70 | Plant response rating, Kochia (kochia (Kochia scoparia); [20]): 0 | Plant response rating (0 to 100), Kochia (kochia (Kochia scoparia); [21]): 20 | Plant response rating, Kochia (kochia (Kochia scoparia); [22]): 0 | Plant response rating, Crabgrass [2, 19]: 100 | Plant response rating, Crabgrass [2, 20]: 70 | Plant response rating (0 to 100), Crabgrass [2, 21]: 90 | Plant response rating, Crabgrass [2, 22]: 70 | Plant response rating, Goosegrass [3, 19]: 100 | Plant response rating, Goosegrass [3, 20]: 0 | Plant response rating (0 to 100), Goosegrass [3, 21]: 90 | Plant response rating, Goosegrass [3, 22]: 20 | Plant response rating, Johnsongrass [4, 19]: 0 | Plant response rating, Johnsongrass [4, 20]: 0 | Plant response rating (0 to 100), Johnsongrass [4, 21]: 0 | Plant response rating, Johnsongrass [4, 22]: 0 | Plant response rating, Velvetleaf [5, 19]: 20 | Plant response rating, Velvetleaf [5, 20]: 0 | Plant response rating (0 to 100), Velvetleaf [5, 21]: 20 | Plant response rating, Velvetleaf [5, 22]: 0 | Plant response rating, Bermudagrass [6, 19]: 100 | Plant response rating, Bermudagrass [6, 20]: 0 | Plant response rating (0 to 100 where 0 is no effect and 100 is complete control), Bermudagrass [6, 21]: 70 | Plant response rating, Bermudagrass [6, 22]: 70 | Plant response rating, Cupgrass, Woolly [7, 19]: 80 | Plant response rating, Cupgrass, Woolly [7, 20]: 0 | Plant response rating (0 to 100), Cupgrass, Woolly [7, 21]: 50 | Plant response rating, Cupgrass, Woolly [7, 22]: 40 | Plant response rating, Corn (corn (Zea mays); [19]): 0 | Plant response rating, Corn (corn (Zea mays); [20]): 0 | Plant response rating (0 to 100), Corn (corn (Zea mays); [21]): 0 | Plant response rating, Corn (corn (Zea mays); [22]): 0 | Plant response rating, Nightshade (Nightshade; [20]): 0 | Plant response rating, Nightshade (Nightshade; Rate 125 g/ha, scale 0 to 100, 0 no effect, 100 complete control): 0 | Plant response rating, Nightshade (Nightshade; Rate 500 g/ha, scale 0 to 100): 0 | Plant response rating, Foxtail, Giant [8, 19]: 100 | Plant response rating, Foxtail, Giant [8, 20]: 0 | Plant response rating (0 to 100), Foxtail, Giant [8, 21]: 90 | Plant response rating, Foxtail, Giant [8, 22]: 20 | Plant response rating, Sunflower (Sunflower [9]; [20]): 0 | Plant response rating, Sunflower (Sunflower [9]; Rate 500 g/ha, scale 0 to 100): 30 | Plant response rating, Lambsquarters [10, 19]: 100 | Plant response rating, Lambsquarters [10, 20]: 100 | Plant response rating (0 to 100), Lambsquarters [10, 21]: 100 | Plant response rating, Lambsquarters [10, 22]: 100 | Plant response rating, Surinam grass [11, 19]: 60 | Plant response rating, Surinam grass [11, 20]: 0 | Plant response rating (0 to 100), Surinam grass [11, 21]: 50 | Plant response rating, Surinam grass [11, 22]: 0 | Plant response rating, Nutsedge [12, 19]: 0 | Plant response rating, Nutsedge [12, 20]: 0 | Plant response rating (0 to 100), Nutsedge [12, 21]: 0 | Plant response rating, Nutsedge [12, 22]: 0 | Plant response rating, Pigweed [13, 19]: 100 | Plant response rating, Pigweed [13, 20]: 20 | Plant response rating (0 to 100), Pigweed [13, 21]: 100 | Plant response rating, Pigweed [13, 22]: 80 | Plant response rating, Cocklebur [14, 19]: 0 | Plant response rating, Cocklebur [14, 20]: 0 | Plant response rating (0 to 100), Cocklebur [14, 21]: 0 | Plant response rating, Cocklebur [14, 22]: 0 | Plant response rating, Soybean (soybean (Glycine max); [19]): 20 | Plant response rating, Soybean (soybean (Glycine max); [20]): 0 | Plant response rating (0 to 100), Soybean (soybean (Glycine max); [21]): 20 | Plant response rating, Soybean (soybean (Glycine max); [22]): 0 | Plant response rating, Ducksalad [15, 23]: 70 | Plant response rating, Ducksalad [15, 24]: 100 | Ducksalad plant response rating [15, 25]: 40 | Plant response rating, Ducksalad [15, 26]: 0 | Plant response rating, Ducksalad [15, 27]: 20 | Plant response rating, Barnyardgrass [16, 23]: 70 | Plant response rating, Barnyardgrass [16, 24]: 100 | Barnyardgrass plant response rating [16, 25]: 40 | Plant response rating, Barnyardgrass [16, 26]: 0 | Plant response rating, Barnyardgrass [16, 27]: 0 | Flatsedge plant response rating ([17]; Rate 250 g/ha): 100 | Flatsedge plant response rating ([17]; Rate 500 g/ha): 100 | Flatsedge plant response rating ([17]; rate of this column group stands in head line r653, not shown (group before Rate 500 g/ha)): 100 | Plant response rating, Flatsedge ([17]; Rate 62 g/ha): 30 | Plant response rating, Flatsedge ([17]; Rate 125 g/ha): 90 | Plant response rating (0 to 100), Sunflower (Sunflower [18]): 0
